Measurements from patent publication US20130190399A1, “Synthesis and use of omega-3 and omega 6 very long chain polyunsaturated fatty acids (VLC-PUFA)” (MARTEK BIOSCIENCES CORPORATION, priority 2009, published 2013).
pEC50, pIC50: −log10 of the molar value.

Key:
Assay type in all cases: cell-based, rat
[1] = tested on: primary hippocampal neurons; test: Glutamate neurotoxicity, cell death (propidium iodide) after VLC-PUFA pretreatment; details: for pIC50: Rattus norvegicus, Hippocampal neuron, 48 h pretreatment, L-glutamic acid 50 μM 60 min, assayed 24 h later, read-out: half-maximal inhibitory concentration (IC50), inhibition of cell death due to glutamate exposure; for concentrations at which cell death due to glutamate exposure was significantly inhibited: tested 0.1-30 μM, ANOVA/Tukey vs injured vehicle control, p<0.05
Procedure: (§1) Primary hippocampal neurons were harvested from embryonic day 17-18 rat fetuses using a modified version of previously described protocols (Banker and Cowan, 1977; Brewer et al., 1993) that preferentially select for neuronal growth over glial growth (Brewer, 1997). Pregnant dams were anesthetized via isoflurane on gestational day 18, and the rat fetuses were harvested by Cesarean section. Brains were removed and placed in ice-cold (4° C.) Hibernate EB (Brain Bits, Inc., Springfield, Il, USA) until all of the hippocampi were dissected. During the dissection, brain tissue was kept on an ice-cold block in Hibernate E solution. Dissected hippocampal tissue was washed once in room-temperature Hibernate E (without calcium, Brain Bits, Inc.) to remove divalent cations, and then incubated at 37° C. in a solution consisting of 0.17% trypsin in Hybernate E (without calcium) for 10 minutes. The tissue was subsequently washed once with ice-cold Hybernate E (without calcium) containing 15% fetal bovine serum (Atlas Biologicals, Fort Collins, Colo., USA) and then dissociated by trituration in the same media. Dispersed cell suspensions were centrifuged for 2 minutes at 200 g at 4° C., and resuspended in ice-cold Neurobasal medium (Invitrogen, Carlsbad, Calif., USA) supplemented with 1×B27 (Invitrogen), 100 μg/ml penicillin-streptomycin (Invitrogen), 0.5 mM L-glutamine (Invitrogen) and 0.025 mM L-glutamate (Sigma, St. Louis, Mo., USA). Viable cell number and concentration were determined by trypan blue exclusion and counted using an automated cell counter (Countess, Invitrogen). Cell suspensions were diluted in warm Neurobasal/B27 media and plated at a density of 30,000 cells per well in 96-well plates (Falcon Optilux plates, BD Biosciences, Bedford, Mass., USA) coated with laminin (Sigma) and poly-D-lysine (Sigma). Cultures were maintained in a temperature- (37° C.), humidity- (−100%), and gas- (5% CO2, 9% O2) controlled incubator. Half of the media was removed and replaced with fresh media every other day. All cultures were maintained for 3 days in vitro (DIV) in glutamate-containing media and then maintained an additional 7 DIV (glutamate neurotoxicity experiments) or 8 DIV (hypoxia) in Neurobasal/B27 media without glutamate.
(§2) Very long-chain polyunsaturated fatty acids (VLCPUFAs; 34:6n3, 34:5n3, 28:6n3, 28:5n3, and 28:4n6) were obtained as the free fatty acid and were stored at −20° C. until use. Each VLC-PUFA was dissolved in methanol to an initial concentration of 100 mM and then diluted serially in methanol to obtain 1000× stocks for each concentration tested. These were diluted further in media to obtain the appropriate concentration within the culture wells (final concentrations of 30 μM, 10 μM, 3 μM, 1 μM, 0.3 μM, and 0.1 μM). Controls received methanol similarly diluted in media (final concentration 0.1%). The VLC-PUFAs were added to the cultures 48 hours prior to glutamate insult or hypoxia exposure (described below), and a 50% media change occurred immediately prior to hypoxia exposure or immediately following glutamate exposure.
Cultures were treated with L-glutamic acid (50 μM, pH 7.0) for 60 minutes followed by a complete media change containing the appropriate concentrations of VLC-PUFAs. Cells were assayed for viability and mitochondrial health 24 hours after the glutamate treatment. […]

[2] = tested on: primary hippocampal neurons; test: Hypoxia, cell death (propidium iodide) after VLC-PUFA pretreatment; details: 48 h hypoxia, O2 ≦0.3%, tested 0.1-30 μM
Procedure: as §1, with “All cultures were maintained for 3 days in vitro (DIV) in glutamate-containing media and then maintained an additional 7 DIV (glutamate neurotoxicity experiments) or 8 DIV (hypoxia) in Neurobasal/B27 media without glutamate.” left out

[3] = tested on: primary hippocampal neurons; test: Mitochondrial health (TMRE) after glutamate-induced neurotoxicity; details: for pEC50: Rattus norvegicus, Hippocampal neuron, 48 h pretreatment, L-glutamic acid 50 μM 60 min, assayed 24 h later, read-out: half-maximal effective concentration (EC50), increase of mitochondrial health after glutamate; for concentrations at which mitochondrial health after glutamate was significantly increased: tested 0.1-30 μM, ANOVA/Tukey vs injured vehicle control
Procedure: as §1, §2
Cultures were treated with L-glutamic acid (50 μM, pH 7.0) for 60 minutes followed by a complete media change containing the appropriate concentrations of VLC-PUFAs. Cells were assayed for viability and mitochondrial health 24 hours after the glutamate treatment.
Following glutamate exposure or hypoxia, cultures were aspirated with a 96-well plate washer (BioTek, Winooski, Vt., USA) and incubated for 15 minutes at 37° C. with phenol-free Neurobasal media (Invitrogen) containing one of two dye mixtures: 1) Hoechst dye (1:2000 of a 10 μg/ml solution, Invitrogen) and propidium iodide (PI; 1:500 of a 1 μg/ml solution; Invitrogen), or 2) Hoechst dye and tetramethylrhodamine ethyl ester (TMRE; 100 nM; Invitrogen). These dyes identify total cells (Hoechst), dying or dead cells (PI), and functional mitochondria (TMRE). […]

[4] = tested on: primary hippocampal neurons; test: Mitochondrial health (TMRE) after hypoxia; details: 48 h hypoxia, O2 ≦0.3%; tested 0.1-30 μM
Procedure: Primary hippocampal neurons were harvested from embryonic day 17-18 rat fetuses using a modified version of previously described protocols (Banker and Cowan, 1977; Brewer et al., 1993) that preferentially select for neuronal growth over glial growth (Brewer, 1997). Pregnant dams were anesthetized via isoflurane on gestational day 18, and the rat fetuses were harvested by Cesarean section. Brains were removed and placed in ice-cold (4° C.) Hibernate EB (Brain Bits, Inc., Springfield, Il, USA) until all of the hippocampi were dissected. During the dissection, brain tissue was kept on an ice-cold block in Hibernate E solution. Dissected hippocampal tissue was washed once in room-temperature Hibernate E (without calcium, Brain Bits, Inc.) to remove divalent cations, and then incubated at 37° C. in a solution consisting of 0.17% trypsin in Hybernate E (without calcium) for 10 minutes. The tissue was subsequently washed once with ice-cold Hybernate E (without calcium) containing 15% fetal bovine serum (Atlas Biologicals, Fort Collins, Colo., USA) and then dissociated by trituration in the same media. […] Viable cell number and concentration were determined by trypan blue exclusion and counted using an automated cell counter (Countess, Invitrogen). […]

SMILES	pIC50 [1]	concentrations at which cell death due to glutamate exposure was significantly inhibited [1]	effect on hypoxia-induced cell death (in words) [2]	pEC50 [3]	concentrations at which mitochondrial health after glutamate was significantly increased [3]	concentrations at which cell death due to hypoxia was significantly inhibited ([2]; 48 h pretreatment)	effect on mitochondrial health after hypoxia (in words) [4]
CC/C=C\C/C=C\C/C=C\C/C=C\C/C=C\C/C=C\CCCCCCCCC(=O)O [28:6n3]	6.68	≥ 0.3 µM	did not inhibit hypoxia-induced cell death at any concentration tested	6.77	≥ 3.0 µM	–	–
CC/C=C\C/C=C\C/C=C\C/C=C\C/C=C\CCCCCCCCCCCCCCCCCC(=O)O [34:5n3]	6.16	–	exhibited a main effect of treatment, but only one concentration (0.3 μM) approached a significant difference when compared to controls	6.17	3.0 µM	–	–
CC/C=C\C/C=C\C/C=C\C/C=C\C/C=C\C/C=C\CCCCCCCCCCCCCCC(=O)O [34:6n3]	5.97	≥ 3.0 µM	–	6.60	≥ 0.3 µM	1.0 µM	did not significantly alter mitochondrial health at the concentrations tested
